Data reported in patent US11510964B2, “Macrocyclic peptides to decrease c-Myc protein levels and reduce cancer cell growth” (University of Kansas, priority 2017, dated 2022).
“Also recorded” adds a separate entry of the source. Non-standard residues stand in square brackets, D forms with d. Residues, ends and D or L forms follow the SMILES beside them.

How the values were obtained:
Format in all cases: cell-based, human
[1] = system: HEK cells; assay: Cell proliferation assay (WST-1)
Description: Human prostate cancer PC-3 cells were cultured and maintained in EMEM (ATCC), non-prostate HEK (human embryonic kidney) cells were cultured in DMEM, human prostate cancer DU145, LNCaP, 22Rv1 cells were cultured in RPMI 1640 (ATCC), and normal BPH-1 prostate cells and prostate cancer C4-2 cell line were cultured in RPMI 1640 (ATCC), all containing 10% fetal bovine serum (Atlanta Biologicals) and 1% penicillin/streptomycin (Invitrogen). Cells were grown at 37° C. in humidified air with 5% CO2 and passaged every fourth to fifth day following trypsinization with trypsin/EDTA (Invitrogen).^16
PC-3, LNCaP, DU 145, 22Rv1, C4-2, BPH-1, and HEK cells were grown to a density of 2000 cells/well in 96 well plates and treated with [D-Trp]CJ-15,208 or other peptides for 24-72 h in duplicate. Media containing [D-Trp]CJ-15,208 was changed every 24 h. The proliferation of treated cells was determined using the cell proliferation reagent WST-1 (Roche) per the manufacturer's instructions and compared to […] control cells in 1% DMSO in media. After treatment with compound 10 μL of the reagent was added to the well in 100 μL culture media, and the cells incubated at 37° C. for 30 min. The absorbance of the media in each well was measured at […] using a plate reader (BioTek). The percentage cell proliferation was normalized to vehicle treated control cells calculated as: (mean absorbance of sample/mean absorbance of control cells)×100.^38
(§1) Each experiment was performed in triplicate unless otherwise stated in the figure legend. GraphPad Prism 5 was used to determine IC50 values. Data represent the mean value+/−SEM. Compound vs. vehicle treated cells in the cell cycle phase and apoptosis experiments (FIGS. 5-8) were compared using the student's t-test, with a two-tailed, unpaired method, using the Prism software. The effects of compound vs. vehicle treatment on protein levels (FIG. 10) were evaluated by one-way ANOVA with Dunnett's test for multiple comparisons.

[2] = system: PC-3 cells; assay: Annexin V-APC/PI apoptosis assay; settings: PC-3, 10 μM
Description: The extent of apoptosis was analyzed by detecting surface expression of phosphatidylserine on apoptotic cells using an Annexin V-APC/PI dual staining apoptosis detection kit I (BD Biosciences) according to the manufacturer's protocol. Following treatment of PC-3 cells with 10 μM [D-Trp]CJ-15,208 or vehicle for 24 h or 48 h, the cells were collected, washed twice with cold PBS, and resuspended in 1× binding buffer at a concentration of 1×10^6 cells/mL. Cell suspension (100 μL) was transferred to a 5 ml culture tube, and 5 μL of Annexin V-APC and 25 μL of PI (50 μg/mL) were added. The cells were incubated for 15 min at room temperature in the dark with gentle vortexing, 400 μL of 1× binding buffer was then added to each sample, and the samples were analyzed using a Beckman-Coulter MoFlo XDP flow cytometer within one hour. The number of viable, apoptotic and necrotic cells were quantified using FlowJo v10.0.7. The apoptosis fraction (%) was calculated as (number of apoptotic cells/the number of total cells observed)×100%.^38
as §1

[3] = system: Akt in PC-3 cells; assay: Western blot of p-Akt/total Akt protein levels; settings: 48 h
Description: (§2) Cells were seeded in 6 well plates at a density of 1×10^5 cells/well and grown to 75% confluence. Cells were treated with [D-Trp]CJ-15,208 at the indicated concentrations. Cells were then harvested as described above, and the cell pellets lysed in RIPA buffer consisting of 10 mM Tris HCl, pH 8.0, 150 mM NaCl, 1 mM EDTA, 1% Triton-X-100, 0.1% SDS, 1% sodium deoxycholate, and a protease inhibitor cocktail #P8340 (Sigma). Cell lysates were centrifuged at 13×1000 rpm for 15 min and the supernatants collected. The total protein concentration was measured in cell lysates using the standard Bradford assay. SDS gel electrophoresis was performed using 4-20% polyacrylamide gel (BioRad). […] Signal densities of the protein bands were determined using ImageJ software (NIH) and normalized to the internal loading control (actin).
(§3) Each experiment was performed in triplicate unless otherwise stated in the figure legend. […] The effects of compound vs. vehicle treatment on protein levels (FIG. 10) were evaluated by one-way ANOVA with Dunnett's test for multiple comparisons.

[4] = system: Erk in PC-3 cells; assay: Western blot of p-Erk/total Erk protein levels
Description: as §2, §3

SMILES: O=C1N[C@H](Cc2c[nH]c3ccccc23)C(=O)N[C@@H](Cc2ccccc2)C(=O)N2CCC[C@@H]2C(=O)N[C@H]1Cc1ccccc1 [[D-Trp]CJ-15,208, cyclo[Phe-D-Pro-Phe-D-Trp]] (cyclo(F[dP]F[dW]))
- IC50, cell growth ([1]; 48 h): No effect
- IC50, cell growth ([1]; 72 h): No effect
- effect on cell proliferation / cytotoxicity ([1]; time not stated): No cytotoxicity was observed; also recorded: did not prevent cell proliferation
- number of cells in early or late apoptosis ([2]; 24 h): No significant change
- increase of number of cells in early apoptosis vs. vehicle ([2]; 48 h): 10 fold
- increase of number of cells in late apoptosis vs. vehicle ([2]; 48 h): 3 fold
- total Akt protein levels ([3]; PC-3, highest concentration (50 μM)): significant decrease
- cellular levels of p-Akt ([3]; PC-3, increasing concentrations): did not change significantly
- total Erk protein levels ([4]; PC-3, 48 h): did not decrease significantly
- cellular levels of p-Erk ([4]; PC-3, increasing concentrations, 48 h): did not change significantly
